This is an account of results in ChEMBL document CHEMBL1201862, “PubChem BioAssay data set” (2004).

The term EC50 denotes the concentration giving half of the maximal effect. As usually defined, the AC50 is the concentration at which the activity in the assay is half-maximal. By IC50 is commonly meant the concentration at which inhibition is half-maximal. As usually defined, the CC50 is the concentration giving 50% cytotoxicity.

The nature of assay [1]: Luminescence Cell-Based Dose Response HTS to Identify Inhibitors of 5'UTR Stem-Loop Driven Prion Protein mRNA Translation in H4 Neuroglioblastoma Cells. [Related pubchem assays: 1827 (Project Summary), 1813 (Primary HTS)]. It is filed as functional.
The nature of assay [2]: alpha-synuclein stem-loop luciferase translation blockers – H4 neuroglioma cells, luminescence, confirmation (AID 1988). It is filed as functional, cell-based.
Assay [3] can be described thus: blockers of bursicon-stimulated LGR2 cAMP reporter – cell-based, HEK293, CRE-luciferase reporter, cherry pick, set 2, dose response (AID 743343).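 Note: transfected cells were stimulated with diluted bursicon conditioned medium after compound addition.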 It is filed as functional.
A short description of assay [4]: toxicity toward HepG2 liver cells – cell-based, plate reader, cherry-pick, antagonist series, cytotoxicity control, dose response (AID 743416). It is filed as functional.
Assay [5] in a line: A549 cell cytotoxicity, dose response, cytotoxicity control, plate reader, cherry-pick, antagonist series (AID 743412). It is filed as functional, cell-based.
The nature of assay [6]: blockade of melanocortin 4 receptor signaling – cell-based, plate reader, cherry pick, counter-screen for LGR2 antagonist project, dose response (AID 743444).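 Note: transfected HEK 293 cells stimulated with alpha-MSH peptide; potency of inhibitors of the alpha-MSH evoked signal.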 It is filed as functional.
The nature of assay [7]: viability of HCT116 lacking mutant beta-catenin – cell-based, human colon tumor, dose response (AID 1045).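 Note: HCT116 colon tumor cells with beta catenin knocked out; cells exposed to compound for 60 hours.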 It is filed as functional.
The nature of assay [8]: viability of PTEN-deleted HCT116 cells – cell-based, HCT116 PTEN knockout, dose response (AID 1047).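 Note: HCT116 colon tumor cells with PTEN knocked out; cells exposed to compound for 60 hours before readout; potency for loss of cell viability measured by luminescence.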 It is filed as functional.
A further assay in a line: cells. It is filed as functional, cell-based.
Assay [9] in a line: luciferase reporter signal suppression in cells – H4 neuroglioma cells, luminescence, dose response (AID 1990). It is filed as functional, cell-based.
Assay [10] in a line: alpha-synuclein stem-loop translation blockers – luminescence, H4 neuroglioblastoma cells, dose confirmation, confirmation (AID 2454).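 Note: H4 neuroglioblastoma cells carrying an alpha-synuclein 5'UTR luciferase reporter; potency for inhibition of the luciferase signal.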 It is filed as functional, cell-based.
Assay [11] relates to BJ. In words: cells. As to conditions: Homo sapiens. It is filed as functional, cell-based.
The nature of assay [12]: HEK-293T viability loss after treatment – luminescence, T-cell screen hits, cytotoxicity control for TCR NF-kB inhibitor project, dose response (AID 489026).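 Note: cells exposed to compound about 14 hours before the viability readout.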 It is filed as functional, cell-based.
Assay [13] in a line: DRD fibroblast viability loss – cell-based, non-viral oncogenic, luminescence, dose response (AID 1934). It is filed as functional. As to conditions: Homo sapiens.
A short description of assay [14]: luciferase reporter signal reduction – luminescence, H4-C neuroglioblastoma cells, dose response (AID 2458).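 Note: H4 neuroglioblastoma cells stably carrying a luciferase reporter gene fusion.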 It is filed as functional, cell-based. Background: Reporter assays use an easily measured gene product as a stand-in for the process of interest.
For assay [15], the system named is BJ. Briefly: growth inhibition of engineered Ras-driven BJ cells – cell-based, alamar blue fluorescence, cherrypicked samples, dose response (AID 2631).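 Note: confirmatory dose-response assay in RAS-dependent BJ fibroblasts engineered with TERT, LT and ST, with cytotoxicity read by fluorescence.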 It is filed as functional. The conditions noted are these: Homo sapiens.
The test system of assay [16] is BJ. Briefly: BJ-TERT-LT-ST fibroblast viability loss – cell-based, RAS-independent, luminescence, dose response (AID 1935).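 Note: BJ fibroblasts immortalized with TERT plus LT and ST oncogenes.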 As to conditions: Homo sapiens. It is filed as functional.
Assay [17] concerns BJ. Briefly: BJ-TERT fibroblast viability loss – cell-based, RAS-independent, luminescence, dose response (AID 1933). It is filed as functional. As to conditions: Homo sapiens.
Assay [18] is described as follows: HIV-1 AD8 envelope cell-cell fusion blockers – cherry-pick, dose response (AID 652062).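 Note: luciferase signal from cell-cell fusion driven by HIV-1 clade B AD8 Env; potency is for inhibitors of fusion seen as a drop in luminescence.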 It is filed as functional, cell-based.
The nature of assay [19]: blockers of HIV-1 envelope-mediated cell-cell fusion – cherry-pick, dose response (AID 652057). It is filed as functional, cell-based.
Assay [20] can be described thus: off-target signal loss in HeLa-CEM21 co-culture – HeLa F-luc CTL cells, cherry-picked, counter-screen for HIV-1 Env fusion inhibitor project, dose response (AID 652040).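 Note: potency for signal decrease marking cytotoxic or nonspecific inhibition.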 It is filed as functional, cell-based. Background: The purpose of a counterscreen is to sort out artefacts and off-target activity.
Assay [21] in a line: blockers of HIV-1 ZM109 envelope-driven cell-cell fusion – HeLa effector, CEM target cells, luciferase, cherry-pick, dose response (AID 652058).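 Note: luciferase signal from HIV-1 Env mediated cell-cell fusion of effector and target cells.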 It is filed as functional, cell-based.
Assay [22] has as its target Cyclin-dependent kinase 5/CDK5 activator 1 (Homo sapiens, UniProt Q00535). Briefly: blockade of human CDK5 activity – biochemical, cherry-picked samples, set 2, dose response (AID 504545).
Assay [23] addresses FAD-linked sulfhydryl oxidase ALR (Homo sapiens, UniProt P55789). In words: ALR-catalysed DTT oxidation blockers – biochemical, H2O2 detection, luminescence, cherry-pick, dose response (AID 493248).
Assay [24] has as its target Voltage-dependent T-type calcium channel subunit alpha-1H (Homo sapiens, UniProt O95180). It is filed as functional.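 Note: channel activity triggered by adding a high calcium stimulation buffer.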
The test system of the next assay is Streptococcus. Briefly: GAS UMAA2166 growth inhibition – luminescence, BacTiterGlo, counter-screen for streptokinase expression inhibitor project, dose response (AID 1915).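 Note: potency for reduction of bacterial viability or growth.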 It is filed as functional, organism-based.
Assay [25] has as its system Streptococcus sp. 'group A'. In words: Streptococcus pyogenes SK(-)GAS viability under kanamycin – luminescence, BacTiterGlo, confirmation, counter-screen for streptokinase expression inhibitor project, dose response (AID 1900). It is filed as functional, organism-based.
The target of the next assay is T1, Streptokinase A (Streptococcus pyogenes serotype M1, UniProt P10520).
T1 sequence (P10520 whole entry): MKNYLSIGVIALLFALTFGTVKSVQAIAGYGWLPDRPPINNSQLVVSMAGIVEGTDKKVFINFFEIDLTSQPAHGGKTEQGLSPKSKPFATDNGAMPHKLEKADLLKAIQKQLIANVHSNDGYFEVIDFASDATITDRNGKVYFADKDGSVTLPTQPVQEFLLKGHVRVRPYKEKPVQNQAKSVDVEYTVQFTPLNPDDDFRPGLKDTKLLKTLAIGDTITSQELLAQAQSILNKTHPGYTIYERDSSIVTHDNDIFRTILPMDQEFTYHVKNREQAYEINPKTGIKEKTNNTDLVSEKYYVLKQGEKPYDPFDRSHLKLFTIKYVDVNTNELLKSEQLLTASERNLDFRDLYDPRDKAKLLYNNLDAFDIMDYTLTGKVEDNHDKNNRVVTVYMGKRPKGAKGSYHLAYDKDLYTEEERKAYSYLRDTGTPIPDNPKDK
In words: viability-normalized secreted streptokinase activity reduction – plasminogen activation absorbance, OD405, dose response (AID 1914).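 Note: secreted streptokinase activity via plasminogen activation per viability signal from cell pellet.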 It is filed as functional, Streptococcus pyogenes M1 GAS.

The nature of assay [26]: A Cell Based Secondary Assay To Explore Cytotoxicity of Compounds that Sensitize Mycobacterium Tuberculosis to Beta-Lactam Antibiotics. It is filed as functional.
A short description of assay [27]: Luminescence Cell-Based Dose Retest to Confirm Inhibitors of Cancer Stem Cells. [Related pubchem assays (depositor defined):AID2717, AID2721]. The conditions noted are these: Homo sapiens. It is filed as functional.

Active and inactive are the calls of the source.

Voltage-dependent T-type calcium channel subunit alpha-1H, sequence (O95180 whole entry): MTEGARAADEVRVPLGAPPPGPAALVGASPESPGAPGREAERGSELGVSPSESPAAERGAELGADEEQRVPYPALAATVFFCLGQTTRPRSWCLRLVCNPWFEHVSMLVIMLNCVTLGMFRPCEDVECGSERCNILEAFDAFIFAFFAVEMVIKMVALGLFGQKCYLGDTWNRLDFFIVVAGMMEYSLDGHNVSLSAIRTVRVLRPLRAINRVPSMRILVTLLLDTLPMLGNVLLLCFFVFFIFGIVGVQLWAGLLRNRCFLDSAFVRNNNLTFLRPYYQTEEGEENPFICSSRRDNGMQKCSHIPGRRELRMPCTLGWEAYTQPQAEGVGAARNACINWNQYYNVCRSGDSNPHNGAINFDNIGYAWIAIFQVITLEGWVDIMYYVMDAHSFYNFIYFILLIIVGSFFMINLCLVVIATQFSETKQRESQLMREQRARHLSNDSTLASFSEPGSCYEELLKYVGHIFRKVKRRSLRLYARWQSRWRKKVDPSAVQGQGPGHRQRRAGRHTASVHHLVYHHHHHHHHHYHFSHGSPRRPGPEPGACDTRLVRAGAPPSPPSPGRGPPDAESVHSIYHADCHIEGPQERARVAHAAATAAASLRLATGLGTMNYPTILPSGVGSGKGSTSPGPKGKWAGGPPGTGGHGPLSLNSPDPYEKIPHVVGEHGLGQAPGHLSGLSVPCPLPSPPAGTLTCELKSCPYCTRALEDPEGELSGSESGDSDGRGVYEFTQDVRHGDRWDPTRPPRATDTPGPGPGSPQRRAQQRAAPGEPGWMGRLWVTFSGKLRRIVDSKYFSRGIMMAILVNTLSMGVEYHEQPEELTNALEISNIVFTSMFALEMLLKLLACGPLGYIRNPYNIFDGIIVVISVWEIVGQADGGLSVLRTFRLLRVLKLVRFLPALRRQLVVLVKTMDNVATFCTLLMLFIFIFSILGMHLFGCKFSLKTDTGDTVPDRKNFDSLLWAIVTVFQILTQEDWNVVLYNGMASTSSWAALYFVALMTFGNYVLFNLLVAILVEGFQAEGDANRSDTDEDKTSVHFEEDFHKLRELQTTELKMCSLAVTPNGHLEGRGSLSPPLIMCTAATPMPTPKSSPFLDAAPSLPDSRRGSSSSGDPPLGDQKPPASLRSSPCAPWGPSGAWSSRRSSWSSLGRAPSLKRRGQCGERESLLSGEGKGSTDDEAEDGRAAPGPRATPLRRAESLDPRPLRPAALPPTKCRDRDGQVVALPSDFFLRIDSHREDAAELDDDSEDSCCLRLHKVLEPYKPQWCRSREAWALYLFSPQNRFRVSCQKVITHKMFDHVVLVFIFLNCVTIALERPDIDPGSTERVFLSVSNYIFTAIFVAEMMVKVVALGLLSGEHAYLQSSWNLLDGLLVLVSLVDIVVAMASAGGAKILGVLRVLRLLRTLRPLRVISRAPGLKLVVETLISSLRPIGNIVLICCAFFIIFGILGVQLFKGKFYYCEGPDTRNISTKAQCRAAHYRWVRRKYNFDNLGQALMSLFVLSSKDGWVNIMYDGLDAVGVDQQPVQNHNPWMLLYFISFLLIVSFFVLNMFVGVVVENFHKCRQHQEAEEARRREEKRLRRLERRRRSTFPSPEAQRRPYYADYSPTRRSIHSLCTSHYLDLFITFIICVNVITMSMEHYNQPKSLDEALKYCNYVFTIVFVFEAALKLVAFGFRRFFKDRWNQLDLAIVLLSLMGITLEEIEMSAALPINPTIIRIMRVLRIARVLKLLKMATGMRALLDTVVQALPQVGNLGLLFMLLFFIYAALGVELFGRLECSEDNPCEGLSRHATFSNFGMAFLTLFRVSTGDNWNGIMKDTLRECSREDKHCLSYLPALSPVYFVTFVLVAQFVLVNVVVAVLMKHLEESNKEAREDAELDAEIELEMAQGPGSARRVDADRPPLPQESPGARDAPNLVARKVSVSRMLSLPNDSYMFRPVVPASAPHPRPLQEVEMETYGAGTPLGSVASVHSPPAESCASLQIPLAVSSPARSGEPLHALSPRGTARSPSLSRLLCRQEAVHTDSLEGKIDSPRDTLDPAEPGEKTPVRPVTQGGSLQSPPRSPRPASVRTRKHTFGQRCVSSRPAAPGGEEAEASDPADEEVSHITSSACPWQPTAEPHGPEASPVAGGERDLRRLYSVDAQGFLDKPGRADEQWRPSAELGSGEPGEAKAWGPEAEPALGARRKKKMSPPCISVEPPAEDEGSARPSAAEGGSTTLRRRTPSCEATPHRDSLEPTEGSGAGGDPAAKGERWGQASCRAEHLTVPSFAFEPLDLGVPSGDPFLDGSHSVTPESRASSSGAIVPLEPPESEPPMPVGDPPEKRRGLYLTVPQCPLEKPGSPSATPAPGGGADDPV
FAD-linked sulfhydryl oxidase ALR, sequence (P55789 whole entry): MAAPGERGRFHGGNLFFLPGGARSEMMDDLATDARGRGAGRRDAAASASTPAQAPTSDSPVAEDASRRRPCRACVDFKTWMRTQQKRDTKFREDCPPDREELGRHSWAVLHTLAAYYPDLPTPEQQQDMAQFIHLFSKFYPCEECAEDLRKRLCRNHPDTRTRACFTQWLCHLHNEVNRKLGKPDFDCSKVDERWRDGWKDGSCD
Cyclin-dependent kinase 5/CDK5 activator 1, sequence (Q00535 whole entry): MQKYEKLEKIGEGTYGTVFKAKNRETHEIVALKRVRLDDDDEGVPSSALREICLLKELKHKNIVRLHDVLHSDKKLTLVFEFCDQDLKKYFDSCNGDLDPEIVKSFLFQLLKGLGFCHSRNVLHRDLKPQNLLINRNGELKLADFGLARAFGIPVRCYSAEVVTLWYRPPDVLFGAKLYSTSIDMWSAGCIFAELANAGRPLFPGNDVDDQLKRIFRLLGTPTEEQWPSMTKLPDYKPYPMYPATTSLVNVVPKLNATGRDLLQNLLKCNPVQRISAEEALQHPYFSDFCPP
Cyclin-dependent kinase 5/CDK5 activator 1, sequence (Q15078 whole entry, further chain): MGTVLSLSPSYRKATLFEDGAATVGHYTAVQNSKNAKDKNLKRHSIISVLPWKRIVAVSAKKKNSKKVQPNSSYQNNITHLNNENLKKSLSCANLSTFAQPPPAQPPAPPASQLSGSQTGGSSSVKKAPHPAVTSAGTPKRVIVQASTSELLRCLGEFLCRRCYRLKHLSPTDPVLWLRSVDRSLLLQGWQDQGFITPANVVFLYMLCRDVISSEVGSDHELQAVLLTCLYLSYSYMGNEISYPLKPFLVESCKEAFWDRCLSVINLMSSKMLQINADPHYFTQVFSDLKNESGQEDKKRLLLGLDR

`Cc1ccc(NC(=O)c2ccc3c(c2)OCCO3)cc1C`: the figures for the EC50 in assay [1] and in [2] were 5.06 µM (active) and 3.68 µM (active), respectively. Besides, the AC50 in [3] is 5.65 µM (active); in assay [4], > 52 µM (inactive); in [5] it was > 52 µM (inactive); in assay [6], 7.61 µM (active).
As to `Cc1ccc2cc(C#N)c(SCc3nnc(-c4ccccc4[N+](=O)[O-])o3)nc2c1`, the EC50 in assay [7] was 4.3 µM (active); in assay [8], 3.33 µM (active).
As for `CCOc1ccccc1C(=O)N1CCN(c2cccc(Cl)c2)CC1`, the EC50 in the assay “cells” is 0.331 µM (active); in assay [2], < 0.1 µM (active); in assay [9], < 0.1 µM (active); in assay [10], 0.31 µM (active); in the assay with BJ [11], 2.85 µM (inconclusive); in [13], 2.65 µM (active). The EC50 in assay [14] is 0.229 µM (active); in the assay with BJ [15] it was < 0.104 µM (active); in the assay with BJ [16], 1.44 µM (active); with BJ [17] it was 2.66 µM (inconclusive). The IC50 in [12] is > 80 µM (inactive).
With `Sc1ncc(-c2ccccc2)n1-c1cccc(Cl)c1`, the AC50 in assay [18] was 21.3 µM (active); in [19], 11.7 µM (active); in [20], 17.1 µM (active); in assay [21], 16.1 µM (active).
As for `Cc1cc(-c2nsc(=O)o2)c(S(C)(=O)=O)s1`, the AC50 is 29.3 µM (active) in assay [22] and 3.86 µM (active) in assay [23].
Turning to `Cn1cccc1Cc1nnc(SCC(=O)Nc2ccc(Cl)cc2)n1-c1ccc(F)cc1`, in assay [24], the EC50 is 1.32 µM (active).
In the case of `COc1cc2c(C(=O)N3CCN(c4ccccc4C)CC3)c(C)oc2cc1Br`, the EC50 with Streptococcus was 36 µM (active); in [25], 4.4 µM (active); on Streptokinase A, 79.8 µM (active). Further, in assay [26], the CC50 was > 40 µM (active).
As to `COc1cc(OC)cc(-c2cc3ccc(OC)cc3cn2)c1`, in assay [27], the AC50 is 3.32 µM (active). For the same compound, in [26], the CC50 is 21.8 µM (active).
